The subject of one data set is A. terreus. Briefly: Agar diffusion antifungal bioactivity test. Conditions: Aspergillus terreus. Format: cell-based. The method, then: (§1) Janthinobacterium agaricidamnosum (DSM 9628) was retrieved from the German collection of microorganisms (DSM). The bacteria were cultured in nutrient media (605 DSM without NaCl; 1 g/L beef extract, 2 g/L yeast extract, 5 g/L peptone, 15 g/L agar). Plates and liquid cultures (shaken at 150 rpm in baffled flasks) were grown at 22° C. and 28° C., respectively. During screening plates and liquid cultures of modified nutrient agar (additional 4 g/L chitin, 100 g/L mushroom cubes), M9 (6 g/L Na2HPO4, 3 g/L KH2PO4, 0.5 g/L NaCl, 2 g/L NH4Cl, 4 g/L glucose, […], 2 mM MgSO4, 15 g/L agar), MS (20 g/L mannite, 20 g/L soy flour, 20 g/L agar) and modified VK (5 g/L glycine, 10 g/L yeast extract, 10 g/L glucose, 10 g/L corn steep, 10 g/L CaCO3, 15 g/L agar pH 6.7-7.0) media were used. For the production of jagaricin J. agaricidamnosum was grown in modified VK medium. The selection of positive J. agaricidamnosum mutants was carried out on nutrition agar supplemented with 50 μg/mL kanamycin. For the construction of pKG01, Escherichia coli Top 10 cells and E. coli ER2925 cells were used. E. coli was cultured in LB medium (10 g/L tryptone, 5 g/L yeast extract, 5 g/L NaCl, 1 g/L glucose) supplemented with 50 μg/mL kanamycin. Candida albicans, Aspergillus fumigatus and A. terreus were used for the bioactivity tests and they were cultivated on malt agar (C. albicans; 40 g/L malt extract, 4 g/L yeast extract, 15 g/L agar, pH 5.7-6.0) and potato glucose agar (A. fumigatus and A. terreus; 4 g/L potato starch infusion, 20 g/L dextrose, 15 g/L agar) plates, respectively.
(§2) 50 μL of different concentrated jagaricin solutions were each pipetted into a pierced hole (9 mm diameter) within an agar plate that was inoculated with the test strains C. albicans, A. fumigatus and A. terreus, respectively. After incubation at 24° C. over night the inhibition zone was measured. The antiproliferative and cytotoxic assay were performed as previously described (Abdou, R. et al., Phytochemistry, 2009. 71(1): p. 110-6).

The subject of another data set is A. fumigatus. The data set can be described thus: Agar diffusion antifungal bioactivity test. Format: cell-based. As to conditions: Aspergillus fumigatus. The method, then: as §1, §2
A general note: A growth-free zone around the sample is the usual read-out of agar diffusion tests.

For the next data set, the system named is C. albicans. The data set can be described thus: Agar diffusion antifungal bioactivity test. Format: cell-based. As to conditions: Candida albicans. The method, then:
as §1, §2

Data set [1] deals with human chronic myeloid leukemia cells K-562. The data set can be described thus: Antiproliferative assay. Format: cell-based. Conditions: K562, K-562, antiproliferative. The method, then: as §2
In data set [2] the test system is human umbilical vein endothelial cells HUVEC. Briefly: Antiproliferative assay. Format: cell-based. The method, then: as §2
For the next data set, the system named is mushroom tissue. Briefly: Application of purified jagaricin on mushroom tissue. Details: species or system Agaricus bisporus. As to conditions: purified jagaricin applied to mushroom tissue.
The next data set relates to bacteria. Briefly: Antibacterial activity (data not shown). Format: cell-based.
A further data set is described as follows: Cytotoxic assay. Format: cell-based. Conditions: human, HeLa cells (human cervix carcinoma). The method, then:
as §2

The structures appear in SMILES notation. Converted amounts (≈) assume the structure as drawn. Starred links: 1 amine or outer side, 2 acyl side, 3 side chain; linkers in the order of their positions; H or OH if unused. Positions of bridges follow the written chain, without caps; N, C: chain ends. Non-standard residues stand in square brackets, D forms with d. Residues, ends and D or L forms follow the SMILES beside them. *: point of attachment. Tetradecanoyl(3R-OH) = CCCCCCCCCCC[C@@H](O)CC(=O)*; X1 = C/C=C(/N[*:1])C(=O)[*:2]; Dhb = C/C=C(\N)C(=O)O

A word on the MIC: it is the lowest concentration found to suppress growth. A lower MIC goes with a more susceptible organism. The term GI50 denotes the concentration giving 50% growth inhibition. Low readings indicate more potent growth inhibition, high ones less potent growth inhibition. What is called CC50 is the concentration that lowers cell viability or growth by half. A high value points to lower toxicity to the cells. Take `C/C=C1\NC(=O)[C@@H](Cc2ccc(O)cc2)NC(=O)[C@@H]([C@H](C)O)NC(=O)[C@@H](NC(=O)/C(=C\C)NC(=O)C[C@H](O)CCCCCCCCCCC)[C@@H](C)OC(=O)[C@H](Cc2c[nH]cn2)NC(=O)[C@H]([C@@H](C)O)NC(=O)CNC(=O)[C@@H](CCC(N)=O)NC1=O` [jagaricin] ({Tetradecanoyl(3R-OH)}-[X1]T[dT][dY][Dhb][dQ]GTH; ester 2-C): the values for the MIC against A. terreus, with A. fumigatus and against C. albicans were 0.28 µM (≈ 0.331 µg/mL), 0.41 µM (≈ 0.484 µg/mL) and 0.42 µM (≈ 0.496 µg/mL), respectively. Further, the GI50 in data set [1] and in data set [2] was 1000 nM in each case. Besides, the “lesion on mushroom tissue” value in the data set with mushroom tissue is “caused a superficial lesion on mushroom tissue”. Besides, the antibacterial activity result with bacteria is given as “little or no antibacterial activity”. Moreover, it took 3.8 µM to reach half-maximal cytotoxicity in the data set “Cytotoxic assay” (CC50).

These data come from US20150210741A1, “JAGARICIN DERIVATIVES AND THEIR USE AS FUNGICIDE OR ANTITUMOR AGENT” (Leibniz-Institut Für Naturstoff-Forschung Und …, priority 2012, published 2015).
